# Test results reported in publication PMC7154053, “Chemical, Metabolic, and Cellular Characterization of a FtsZ Inhibitor Effective Against Burkholderia cenocepacia” (Frontiers in Microbiology, 2020).
# Like-named read-outs stand apart in the source and are kept apart here.
# Legend:
# B. cenocepacia J2315 = assay: MIC, 2-fold microdilution, resazurin method; format: cell-based, Burkholderia cenocepacia; conditions: for MIC: Burkholderia cenocepacia, J2315; for activity compared with C109, in words: SAR statements, against both bacteria and the purified enzyme
# Method: (§1) Burkholderia cenocepacia strains, Escherichia coli ATCC 25922, Pseudomonas aeruginosa PAO1, and Staphylococcus aureus ATCC 25923 were grown in Luria-Bertani (LB) medium (Difco), if not differently specified, with shaking at 200 rpm, or on LB agar, at 37°C.
# (§2) The microtiter plates were incubated at 37°C for 48 (for B. cenocepacia) or 24 h (for all the other strains) and growth was determined by the resazurin method (Martin et al., [2006]). A solution of resazurin sodium salt (Sigma Aldrich) was prepared at 0.01% in distilled water and filter-sterilized. Thirty microliter of resazurin solution were added to each well after 1 or 2 days of incubation at 37°C, and the microtiters were re-incubated at the same temperature for 4 h. The MIC was defined as the lowest concentration of the drug that prevented a change in color from blue to pink, which indicates bacterial growth.
# (§3) Three independent biological replicates were used for each MIC determination.
# E. coli ATCC 25922 = assay: MIC, 2-fold microdilution, resazurin method; format: cell-based; conditions: Escherichia coli, ATCC25922
# Method: as §1, §2, §3
# S. aureus ATCC 25923 = assay: MIC, 2-fold microdilution, resazurin method; format: cell-based, Staphylococcus aureus; conditions: Staphylococcus aureus, ATCC25923
# Method: as §1, §2, §3
# [1] = molecular target: Burkholderia cenocepacia purified FtsZ protein (Burkholderia cenocepacia, UniProt B4E5Y7); assay: biochemical; format: biochemical; conditions: for Inhibition of Bc FtsZ At 100 μM: 100 μM compound; for Inhibition of Bc FtsZ At 100 μM / Inhibits B. cenocepacia FtsZ GTPase at 100µM?: Yes/No; for Inhibits B. cenocepacia FtsZ GTPase at 100µM?: Supplementary Table 1
# Sequence of Burkholderia cenocepacia purified FtsZ protein (B4E5Y7 entry or part of it): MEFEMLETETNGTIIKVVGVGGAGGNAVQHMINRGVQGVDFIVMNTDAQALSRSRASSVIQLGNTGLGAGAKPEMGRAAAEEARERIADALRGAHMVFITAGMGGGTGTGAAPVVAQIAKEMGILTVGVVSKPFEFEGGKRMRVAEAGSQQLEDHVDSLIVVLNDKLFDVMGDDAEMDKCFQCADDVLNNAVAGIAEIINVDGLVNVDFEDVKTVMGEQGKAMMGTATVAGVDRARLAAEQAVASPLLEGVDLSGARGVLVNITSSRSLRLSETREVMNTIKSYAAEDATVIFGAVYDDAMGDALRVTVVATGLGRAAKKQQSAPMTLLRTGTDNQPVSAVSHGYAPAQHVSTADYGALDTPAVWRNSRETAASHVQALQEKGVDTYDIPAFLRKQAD
# Method: All the recombinant FtsZ proteins were expressed at 20°C overnight in E. coli BL21(DE3) cells, upon induction with 0.5 mM IPTG, and purified using the same protocol assessed for the wild-type B. cenocepacia FtsZ (Hogan et al., [2018]).
# GTPase enzyme activity was determined using a pyruvate kinase/L-lactic dehydrogenase (PK/LDH) spectrophotometric coupled assay (Ingerman and Nunnari, [2005]). The assays were performed at 30°C, in a reaction mixture containing […] Hepes pH 7.5, 5 mM MgCl2, 5 mM KCl, 10 U PK/LDH, 0.25 mM NADH, 0.25 mM PEP, and 5–10 μM FtsZ, and initiated by the addition of 0.5 mM GTP. Alternatively, GTPase activity was determined by measuring the release of phosphate using the malachite green assay (Baykov et al., [1988]).
# (1) A[I]=A[0]×(1-[I]/[I]+IC50)
# where A[I] is the enzyme activity at inhibitor concentration [I] and A[0] is the enzyme activity without inhibitor.
# B. cenocepacia = assay: Resazurin-based assay of BcNR reaction mixtures; format: cell-based, Burkholderia cenocepacia; conditions: BcNR reactions with 1 mM C109, with or without NADPH; C109 result: in the absence of NADPH
# Description: To assess whether the resulting BcNR reduction product could inhibit B. cenocepacia growth, we carried out a resazurin-based assay.
# B. cenocepacia FCF19 [2] = assay: MIC, 2-fold microdilution, resazurin method; format: cell-based, Burkholderia cenocepacia; conditions: Burkholderia cenocepacia; clinical isolate FCF19
# Method: as §1, §2, §3
# B. cenocepacia FCF22 [3] = assay: MIC, 2-fold microdilution, resazurin method; format: cell-based, Burkholderia cenocepacia; conditions: Burkholderia cenocepacia; clinical isolate FCF22
# Method: as §1, §2, §3
# P. aeruginosa PAO1 = assay: MIC, 2-fold microdilution, resazurin method; format: cell-based; conditions: Pseudomonas aeruginosa, PAO1
# Method: as §1, §2, §3
# P. aeruginosa = assay: Checkerboard assay with efflux pump inhibitor PaβN MC-207.110; format: cell-based, Pseudomonas aeruginosa; conditions: Pseudomonas aeruginosa; read-out: MIC in the presence of MC-207.110, P. aeruginosa
# Method: as §2, with “growth. […] Three independent biological replicates were used for each MIC determination.” for “growth.”
# B. cenocepacia FCF19 [4] = assay: as above; format: cell-based, Burkholderia cenocepacia; conditions: checkerboard, MC-207.110 0–128 μg/ml; C109 value at 128 μg/ml
# Method: as §2, with “growth. […] Three independent biological replicates were used for each MIC determination.” for “growth.”
# B. cenocepacia FCF22 [5] = assay: as above; format: cell-based, Burkholderia cenocepacia; conditions: checkerboard, MC-207.110 0–128 μg/ml; C109 value at 128 μg/ml
# Method: as §2, with “growth. […] Three independent biological replicates were used for each MIC determination.” for “growth.”
# [6] = tested on: CF bronchial epithelial (CFBE41o-) cell line; assay: Toxicity by MTT assay; format: cell-based; conditions: CFBE41o- cells, data not shown
# [7] = molecular target: T1, B. cenocepacia nitroreductase BCAL0539 (BcNR) (Burkholderia cenocepacia, UniProt B4E8I2); assay: BcNR nitroreductase steady-state kinetics (NADPH decrease at 340 nm); format: biochemical; conditions: compound as substrate of BcNR
# T1 sequence (B4E8I2 1-242): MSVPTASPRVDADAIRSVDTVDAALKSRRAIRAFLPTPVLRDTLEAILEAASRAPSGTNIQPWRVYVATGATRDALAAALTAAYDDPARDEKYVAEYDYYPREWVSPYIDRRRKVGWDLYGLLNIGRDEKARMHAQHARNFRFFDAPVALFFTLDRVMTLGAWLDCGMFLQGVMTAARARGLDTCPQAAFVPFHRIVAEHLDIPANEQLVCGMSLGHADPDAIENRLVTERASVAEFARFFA
# Method: The reaction mixture typically contained 50 mM potassium phosphate pH 8.0, 50 mM KCl, 5–10 μM BcNR, and reactions were started by adding the substrate. Steady-state kinetics parameters were determined by assaying the enzyme at variable concentrations of substrate (10–500 μM). The experiments were performed in triplicate, and the kinetic constants Km and kcat determined by fitting the data to the Michaelis-Menten equation using Origin 8 software.
# [8] = LB, 48 h, read-out: MIC B. cenocepacia J2315
# [9] = Supplementary Table 1, read-out: MIC (µg/ml) B. cenocepacia J2315
# [10] = LB, 24 h, read-out: MIC E. coli 25922
# [11] = Supplementary Table 1, read-out: MIC (µg/ml) E. coli 25922
# [12] = LB, 24 h, read-out: MIC S. aureus 25923
# [13] = Supplementary Table 1, read-out: MIC (µg/ml) S. aureus 25923
SMILES,MIC (B. cenocepacia J2315; [8]),MIC (B. cenocepacia J2315; [9]),"activity compared with C109, in words (B. cenocepacia J2315)",MIC (E. coli ATCC 25922; [10]),MIC (E. coli ATCC 25922; [11]),MIC (S. aureus ATCC 25923; [12]),MIC (S. aureus ATCC 25923; [13]),Inhibition of Bc FtsZ At 100 μM [1],Inhibits B. cenocepacia FtsZ GTPase at 100µM? [1],melting point,also measured
"O=C1CSc2ccc3nsnc3c2N1 [compound 11626109, 7H-[1,2,5]thiadiazolo[3,4-f][1,4]benzothiazin-8(9H)-one]",512 µg/mL,512 µg/mL,loss of activity,> 512 µg/mL,> 512 µg/mL,> 512 µg/mL,> 512 µg/mL,No,No,211 to 213 °C,activity against B. cenocepacia growth (B. cenocepacia): not active
CCOC(=O)CSc1ccc2nsnc2c1[N+](=O)[O-] [compound 11426142],32 µg/mL,32 µg/mL,partially lost activity,8 µg/mL,8 µg/mL,4 µg/mL,4 µg/mL,Yes,Yes,172 to 174 °C,"MIC (B. cenocepacia FCF19 [2]): 32 µg/mL; MIC (B. cenocepacia FCF22 [3]): 32 µg/mL; MIC (P. aeruginosa PAO1; LB, 24 h, read-out: MIC P. aeruginosa PAO1): 32 µg/mL; MIC (P. aeruginosa PAO1; Supplementary Table 1, read-out: MIC (µg/ml) P. aeruginosa PAO1): 32 µg/mL; IC50 [1]: 21 µM; MIC (P. aeruginosa): 2 µg/mL; MIC in the presence of MC-207.110, FCF19 (B. cenocepacia FCF19 [4]): did not change; MIC in the presence of MC-207.110, FCF22 (B. cenocepacia FCF22 [5]): did not change; toxic concentration at 50% (TC50) [6]: 50 µM"
O=C(O)c1ccc([N+](=O)[O-])cc1 [4-nitrobenzoic acid],–,–,–,–,–,–,–,–,–,–,Vmax (Figure 3) [7]: 17.5 ± 1.4 s⁻¹
